Source: patent publication US6875760B2 (Novo Nordisk A/S, priority 1999, dated 2005)

biological target: T1, human glucagon receptor (Homo sapiens, UniProt P47871); experiment: Glucagon Binding Assay (III); conditions: BHK cell membranes, WGA SPA beads, 125I-glucagon; read-out: Glu Bd Assay (III) IC50
T1 construct: expressed in transfected cells; host or cells: BHK (baby hamster kidney) cells
Outline: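 Membranes from BHK cells transfected with the human receptor, prepared at 4 °C, were used in a WGA-bead scintillation proximity binding format. Plates were shaken for 4 hours, left to settle 8–48 hours and then counted. Non-specific binding was defined with 500 nM glucagon.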

T1 sequence (P47871 26-477): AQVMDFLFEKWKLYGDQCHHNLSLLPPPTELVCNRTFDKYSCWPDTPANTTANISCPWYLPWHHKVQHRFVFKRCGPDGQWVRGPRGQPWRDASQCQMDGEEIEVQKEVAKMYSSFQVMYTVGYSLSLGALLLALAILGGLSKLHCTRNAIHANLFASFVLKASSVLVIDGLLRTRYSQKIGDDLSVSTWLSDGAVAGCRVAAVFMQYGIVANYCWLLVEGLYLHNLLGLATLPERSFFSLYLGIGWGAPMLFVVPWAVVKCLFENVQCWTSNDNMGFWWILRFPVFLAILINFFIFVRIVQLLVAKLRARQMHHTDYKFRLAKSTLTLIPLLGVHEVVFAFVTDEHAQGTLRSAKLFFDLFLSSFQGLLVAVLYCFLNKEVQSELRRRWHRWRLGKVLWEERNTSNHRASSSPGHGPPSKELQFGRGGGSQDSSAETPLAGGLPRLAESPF

Structure (SMILES) | IC50 [nM]
CC(C)(C)C1CCC(N(Cc2ccc(C(=O)NCCC(=O)O)cc2)C(=O)Oc2ccc([N+](=O)[O-])cc2)CC1 (centres unmarked) [Example 399, 3-(4-{[(4-tert-Butylcyclohexyl)-(4-nitrophenoxycarbonyl)amino]methyl}benzoylamino)propionic acid] | 120
O=C(O)CCNC(=O)c1ccc(CN(C(=O)Oc2cc(Cl)cc(Cl)c2)c2ccc(C3CCCCC3)cc2)cc1 [Example 400, 3-(4-{[(4-Cyclohexylphenyl)-(3,5-dichlorophenoxycarbonyl)amino]methyl}benzoylamino)propionic acid] | 533
CC(C)(C)C1CCC(N(Cc2ccc(C(=O)NCCC(=O)O)cc2)C(=O)Oc2ccc(Cl)c(Cl)c2)CC1 (centres unmarked) [Example 401, 3-(4-{[(4-tert-Butylcyclohexyl)-(3,4-dichlorophenoxycarbonyl)amino]methyl}benzoylamino)propionic acid] | 176
CC(C)(C)C1CCC(N(Cc2ccc(C(=O)NCCC(=O)O)cc2)C(=O)Oc2cc(Cl)cc(Cl)c2)CC1 (centres unmarked) [Example 402, 3-(4-{[(4-tert-Butylcyclohexyl)-(3,5-dichlorophenoxycarbonyl)amino]methyl}benzoylamino)propionic acid] | 176
CC(C)(C)C1CCC(N(Cc2ccc(C(=O)NCCC(=O)O)cc2)C(=O)Oc2cc(C(F)(F)F)cc(C(F)(F)F)c2)CC1 (centres unmarked) [Example 403, 3-(4-{[(3,5-Bis(trifluoromethyl)phenoxycarbonyl)-(4-tert-butylcyclohexyl)amino]methyl}benzoylamino)propionic acid] | 338
CC(C)(C)C1CCC(N(Cc2ccc(C(=O)NCCC(=O)O)cc2)C(=O)Oc2ccc(Br)cc2Br)CC1 (centres unmarked) [Example 404, 3-(4-{[(4-tert-Butylcyclohexyl)-(2,4-dibromophenoxycarbonyl)amino]methyl}benzoylamino)propionic acid] | 346
CC(C)(C)C1CCC(N(Cc2ccc(C(=O)NCCC(=O)O)cc2)C(=O)Oc2ccc(OC(F)(F)F)cc2)CC1 (centres unmarked) [Example 405, 3-(4-{[(4-tert-Butylcyclohexyl)-(4-trifluoromethoxyphenoxecarbonyl)amino]methyl}benzoylamino)propionic acid] | 224
CC(C)(C)c1ccc(N(Cc2ccc(C(=O)Nc3nn[nH]n3)cc2)C(=O)Oc2cc(C(F)(F)F)cc(C(F)(F)F)c2)cc1 [Example 406] | 751
CC(C)(C)c1ccc(N(Cc2ccc(C(=O)NCCC(=O)O)cc2)C(=O)Oc2ccc(Cl)cc2Cl)cc1 [Example 407, 3-(4-{[(4-tert-Butylphenyl)-(2,4-dichlorophenoxycarbonyl)amino]methyl}benzoylamino)propionic acid] | 756
CC(C)(C)C1CCC(N(Cc2ccc(C(=O)NCCC(=O)O)cc2)C(=O)Oc2cccc(OC(F)(F)F)c2)CC1 (centres unmarked) [Example 408, 3-(4-{[(4-tert-Butylcyclohexyl)-(3-trifluoromethoxyphenoxycarbonyl)amino]methyl}benzoylamino)propionic acid] | 580
CC(C)(C)c1ccc(N(Cc2ccc(C(=O)NCCC(=O)O)cc2)C(=O)Oc2cc(Cl)cc(Cl)c2)cc1 [Example 409, 3-(4-{[(4-tert-Butylphenyl)-(3,5-dichlorophenoxycarbonyl)amino]methyl}benzoylamino)propionic acid] | 520
CC(C)(C)c1ccc(N(Cc2ccc(C(=O)NCCC(=O)O)cc2)C(=O)Oc2cc(C(F)(F)F)cc(C(F)(F)F)c2)cc1 [Example 410, 3-(4-{[(3,5-Bis(trifluoromethyl)phenoxycarbonyl)-(4-tert-butylphenyl)amino]methyl}benzoylamino)propionic acid] | 386
CC(C)(C)c1ccc(N(Cc2ccc(C(=O)NCCC(=O)O)cc2)C(=O)Oc2ccc(OC(F)(F)F)cc2)cc1 [Example 411, 3-(4-{[(4-tert-Butylphenyl)-(4-trifluoromethoxyphenoxycarbonyl)amino]methyl}benzoylamino)propionic acid] | 704
CC(C)(C)c1ccc(N(Cc2ccc(C(=O)NCCC(=O)O)cc2)C(=O)Oc2cccc(OC(F)(F)F)c2)cc1 [Example 412, 3-(4-{[(4-tert-Butylphenyl)-(3-trifluoromethoxyphenoxycarbonyl)amino]methyl}benzoylamino)propionic acid] | 604
O=C(O)CCNC(=O)c1ccc(CN(C(=O)Oc2ccc([N+](=O)[O-])cc2)c2ccc(C3CCCCC3)cc2)cc1 [Example 413, 3-(4-{[(4-Cyclohexylphenyl)-(4-nitrophenoxycarbonyl)amino]methyl}benzoylamino)propionic acid] | 1200
O=C(O)CCNC(=O)c1ccc(CN(C(=O)Oc2cccc([N+](=O)[O-])c2)c2ccc(C3CCCCC3)cc2)cc1 [Example 414, 3-(4-{[(4-Cyclohexylphenyl)-(3-nitrophenoxycarbonyl)amino]methyl}benzoylamino)propionic acid] | 934

Structure (SMILES) | IC50 [nM]
O=C(O)CCNC(=O)c1ccc(CN(C(=O)Oc2ccccc2[N+](=O)[O-])c2ccc(C3CCCCC3)cc2)cc1 [Example 415, 3-(4-{[(4-Cyclohexylphenyl)-(2-nitrophenoxycarbonyl)amino]methyl}benzoylamino)propionic acid] | 2420
O=C(O)CCNC(=O)c1ccc(CN(C(=O)Oc2ccc(Cl)cc2Cl)c2ccc(C3CCCCC3)cc2)cc1 [Example 416, 3-(4-{[(4-Cyclohexylphenyl)-(2,4-dichlorophenoxycarbonyl)amino]methyl}benzoylamino)propionic acid] | 634
O=C(O)CCNC(=O)c1ccc(CN(C(=O)Oc2ccc(F)c(F)c2)c2ccc(C3CCCCC3)cc2)cc1 [Example 417, 3-(4-{[(4-Cyclohexylphenyl)-(3,4-difluorophenoxycarbonyl)amino]methyl}benzoylamino)propionic acid] | 877
CSc1ccc(OC(=O)N(Cc2ccc(C(=O)NCCC(=O)O)cc2)c2ccc(C3CCCCC3)cc2)cc1 [Example 418, 3-(4-{[(4-Cyclohexylphenyl)-(4-methylsulfanylphenoxycarbonyl)amino]methyl}benzoylamino)propionic acid] | 472
O=C(O)CCNC(=O)c1ccc(CN(C(=O)Oc2cc(C(F)(F)F)cc(C(F)(F)F)c2)c2ccc(C3CCCCC3)cc2)cc1 [Example 419, 3-(-4-{[(3,5-Bis(trifluoromethyl)phenoxycarbonyl)-(4-cyclohexylphenyl)amino]methyl}benzoylamino)propionic acid] | 482
O=C(O)CCNC(=O)c1ccc(CN(C(=O)Oc2ccc(Br)cc2Br)c2ccc(C3CCCCC3)cc2)cc1 [Example 420, 3-(4-{[(4-Cyclohexylphenyl)-(2,4-dibromompheoxycarbonyl)amino]methyl}benzoylamino)propionic acid] | 729
O=C(O)CCNC(=O)c1ccc(CN(C(=O)Oc2cccc(OC(F)(F)F)c2)c2ccc(C3CCCCC3)cc2)cc1 [Example 421, 3-(4-{[(4-Cyclohexylphenyl)-(3-trifluoromethoxyphenoxycarbonyl)amino]methyl}benzoylamino)propionic acid] | 528
O=C(O)CCNC(=O)c1ccc(CN(Cc2cc(Cl)cc(Cl)c2)NC(=O)c2ccc(OC(F)(F)F)cc2)cc1 [Example 422, 3-{4-[N-(3,5-Dichlorobenzyl)-N′-(4-trifluoromethoxybenzoyl)hydrazinomethyl]benzoylamino}propionic acid] | 536
CCC(C)(C)C1CCC(N(Cc2ccc(C(=O)NCCC(=O)O)cc2)NC(=O)c2ccc(OC(F)(F)F)cc2)CC1 (centres unmarked) [Example 423, 3-{4-[N-[4-(1,1-Dimethylpropyl)cyclohexyl]-N′-(4-trifluoromethoxybenzoyl)hydrazinomethyl]benzoylamino}propionic acid] | 37
CC(C)(C)C1CCC(N(Cc2ccc(C(=O)NCCC(=O)O)cc2)NC(=O)c2ccc(OC(F)(F)F)cc2)CC1 (centres unmarked) [Example 424, 3-{4-[N-(4-tert-Butylcyclohexyl)-N′-(4-trifluoromethoxybenzoyl)hydrazinomethyl]benzoylamino}propionic acid] | 61
O=C(O)CCNC(=O)c1ccc(CN(NC(=O)c2ccc(OC(F)(F)F)cc2)C2C[C@@H]3C[C@H]2C2CCCC23)cc1 (some centres unmarked) [Example 425, 3-{4-[N-(Octahydro-4,7-methanoinden-5-yl)-N′-(4-trifluoromethoxybenzoyl)hydrazinomethyl]benzoylamino}propionic acid] | 220
O=C(O)CCNC(=O)c1ccc(CN(NC(=O)c2ccc(OC(F)(F)F)cc2)C2CCC(c3ccccc3)CC2)cc1 (centres unmarked) [Example 426, 3-{4-[N-(4-Phenylcyclohexyl)-N′-(4-trifluoromethoxybenzoyl)hydrazinomethyl]benzoylamino}propionic acid] | 338
O=C(O)CCNC(=O)c1ccc(CN(NC(=O)c2ccc(OC(F)(F)F)cc2)C2CCC3CCCCC3C2)cc1 (centres unmarked) [Example 427, 3-{4-[N-(Decahydronaphthalen-2-yl)-N′-(4-trifluoromethoxybenzoyl)hydrazinomethyl]benzoylamino}propionic acid] | 512
CC(C)(C)C1CCC(N(Cc2ccc(C(=O)NCCC(=O)O)cc2)NC(=O)c2cc(C(F)(F)F)cc(C(F)(F)F)c2)CC1 (centres unmarked) [Example 428, 3-{4-[N′-(3,5-Bis(trifluoromethyl)benzoyl)-N-(4-tert-butylcyclohexyl)hydrazinomethyl]benzoylamino}propionic acid] | 410
CC(C)(C)[C@H]1CC[C@H](N(Cc2ccc(C(=O)NCCC(=O)O)cc2)NC(=O)c2ccc(OC(F)(F)F)cc2)CC1 [Example 429, 3-{4-[N-(trans-4-tert-Butylcyclohexyl)-N′-(4-trifluoromethoxybenzoyl)hydrazinomethyl]benzoylamino}propionic acid] | 86
O=C(O)CCNC(=O)c1ccc(CN(C(=O)Nc2ccc(OC(F)(F)F)cc2)c2ccc(Br)cc2)cc1 [Example 430, 3-{4-[1-(4-Bromophenyl)-3-(4-trifluoromethoxyphenyl)ureidomethyl]benzoylamino}propionic acid] | 1680
